These results are taken from patent US20240277658A1, “NLRP3 ACTIVATORS FOR USE IN THE TREATMENT OF INFECTIOUS DISEASES OR CANCER BY ACTIVATING NLRP3 INFLAMMASOME” (ALBERT-LUDWIGS-UNIVERSITÄT FREIBURG, priority 2020, published 2024).

Structures are written as SMILES. Values joined by “and” are separate entries in the source; they are usually repeats but may differ in a detail not shown here. Equal entries are not always repeated. Where two headings read alike, the source gives them in different places.

Assay [1] deals with BMDCs. Kind of assay: LDH release (lytic cell death, pyroptosis) from LPS-primed BMDCs. Type of assay: cell-based, mouse. Conditions: compound 50 μM; for Average (% positive control): LDH release, positive control nigericin 5 μM; for cytotoxicity at 50 µM: Mus musculus, BMDC, LPS-primed BMDCs. The method, boiled down:
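Mouse BMDCs (7-9 days differentiated, GM-CSF) primed with 50 ng ml^−1 E. coli K12 LPS for 3 hours, then exposed 3 hours to compounds (50 μM unless indicated) or activators (nigericin 5 μM; R837, CL097 100 μM). Lytic death measured as LDH release by colorimetric assay, triplicate wells.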
In general terms: LDH leaks from cells whose membrane has failed.

The target of assay [2] is T1, NLRP3 inflammasome (Mus musculus, UniProt Q8R4B8).
T1 construct: endogenous in cells; host or cells: primary mouse bone marrow-derived dendritic cells (BMDCs), LPS-primed
T1 sequence (Q8R4B8 whole entry): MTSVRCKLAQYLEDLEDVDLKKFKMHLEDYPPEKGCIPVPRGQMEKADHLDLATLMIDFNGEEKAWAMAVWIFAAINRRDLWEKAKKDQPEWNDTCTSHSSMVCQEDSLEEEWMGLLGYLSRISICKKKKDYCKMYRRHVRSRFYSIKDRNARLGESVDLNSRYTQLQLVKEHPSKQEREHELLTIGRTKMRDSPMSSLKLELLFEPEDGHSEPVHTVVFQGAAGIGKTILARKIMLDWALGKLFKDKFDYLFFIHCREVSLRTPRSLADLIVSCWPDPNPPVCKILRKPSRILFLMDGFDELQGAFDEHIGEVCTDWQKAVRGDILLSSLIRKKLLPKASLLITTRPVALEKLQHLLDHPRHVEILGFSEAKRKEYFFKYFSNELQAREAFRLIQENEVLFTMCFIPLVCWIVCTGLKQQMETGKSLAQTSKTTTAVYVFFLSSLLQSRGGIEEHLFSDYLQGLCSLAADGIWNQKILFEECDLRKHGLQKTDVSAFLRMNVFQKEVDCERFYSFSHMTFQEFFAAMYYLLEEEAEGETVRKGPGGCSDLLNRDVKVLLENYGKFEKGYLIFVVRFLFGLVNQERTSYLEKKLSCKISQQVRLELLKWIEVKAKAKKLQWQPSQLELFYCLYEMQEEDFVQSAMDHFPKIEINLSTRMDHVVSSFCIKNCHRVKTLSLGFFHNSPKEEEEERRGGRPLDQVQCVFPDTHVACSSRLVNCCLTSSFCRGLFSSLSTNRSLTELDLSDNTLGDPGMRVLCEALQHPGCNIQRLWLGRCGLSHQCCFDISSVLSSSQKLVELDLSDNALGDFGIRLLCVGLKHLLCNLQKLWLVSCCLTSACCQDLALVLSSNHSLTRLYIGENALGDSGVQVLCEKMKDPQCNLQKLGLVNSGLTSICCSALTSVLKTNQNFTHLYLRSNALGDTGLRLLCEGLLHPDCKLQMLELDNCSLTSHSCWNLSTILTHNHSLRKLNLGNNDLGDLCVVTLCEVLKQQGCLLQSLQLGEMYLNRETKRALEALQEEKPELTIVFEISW
In words: IL-1β release from LPS-primed BMDCs (ELISA) as readout of NLRP3 inflammasome activation. Conditions: compound 50 μM; for Average (% positive control): IL-1β release, positive control nigericin 5 μM; for Average IL-1β / IL-1β: LPS-primed BMDCs; for IL-1β: single replicates. In kind it is cell-based. The gist of the method:
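NLRP3 inflammasome activation was read out as IL-1β released into the supernatant, measured by ELISA. Murine BMDCs were primed with LPS (50 ng ml^−1, 3 hours), then incubated with compounds for 3 hours, with each condition run in three technical replicates. Nigericin at 5 μM acted as the positive control activator, and IL-1β release was also expressed as a percentage of that control.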
A general note: An ELISA detects its analyte on a solid surface through an enzyme-linked reagent.

The mark [3] stands for this setting: read-out: Average LDH release (% of max.).
[4] abbreviates: single replicates, read-out: LDH release (% of max.).

As to `COc1ccc(F)cc1NC(=O)NC(c1nc(-c2cccnc2)no1)C(C)C` (stereo not drawn) [L01.007, 1-(5-fluoro-2-methoxy-phenyl)-3-{2-methyl-1-[3-(pyridin-3-yl)-1,2,4-oxadiazol-5-yl]propyl}-urea], the “Average (% positive control)” value in assay [1] stood at 27.756 % positive control. Also, the cytotoxicity at 50 µM in assay [1] (setting [3]) amounted to 20.3%. Besides, the cytotoxicity at 50 µM in assay [1] (setting [4]) turned out to be 17.8%. In addition, in assay [2], the “Average (% positive control)” value is given as 16.422 % positive control; the “Average IL-1β” value was determined as 1.177 ng/mL; the “IL-1β” value was 0.859 ng/mL and 1.572 ng/mL and 1.101 ng/mL.
`Cc1ccc(NC(=O)NCc2nc(Cc3ccccc3)no2)cc1` [L01.088, 3-[(3-benzyl-1,2,4-oxadiazol-5-yl)methyl]-1-(4-methylphenyl)urea]: the “Average (% positive control)” value in assay [1] amounted to 7.174 % positive control. In assay [1] (setting [3]), the cytotoxicity at 50 µM stood at 5.25%. Also, the cytotoxicity at 50 µM in assay [1] (setting [4]) is 5.68%. In addition, in assay [2], the “Average (% positive control)” value was 0.866 % positive control; the “Average IL-1β” value was 0.062 ng/mL; the “IL-1β” value is 0.069 ng/mL and 0.058 ng/mL and 0.059 ng/mL.
With `O=C(Nc1ccccc1)Nc1cccc(NC(=O)NC2CC2)c1` [L01.122, 3-cyclopropyl-1-{3-[(phenylcarbamoyl)-amino]phenyl}urea], in assay [1], the “Average (% positive control)” value was 11.054 % positive control. Also, the cytotoxicity at 50 µM in assay [1] (setting [3]) stood at 8.09%. The cytotoxicity at 50 µM in assay [1] (setting [4]) was 9.16%. Besides, in assay [2], the “Average (% positive control)” value was determined as 1.214 % positive control; the “Average IL-1β” value was determined as 0.087 ng/mL; the “IL-1β” value is 0.072 ng/mL and 0.093 ng/mL and 0.095 ng/mL.
`COCc1cc(F)ccc1NC(=O)NC(c1nc(-c2cccnc2)no1)C(C)C` (stereo not drawn) [L01.054, 1-[4-fluoro-2-(methoxy-methyl)phenyl]-3-{2-methyl-1-[3-(pyridin-3-yl)-1,2,4-oxadiazol-5-yl]propyl}urea]: the “Average (% positive control)” value in assay [1] is given as 11.431 % positive control. Also, the cytotoxicity at 50 µM in assay [1] (setting [3]) is 8.36%. In addition, in assay [1] (setting [4]), the cytotoxicity at 50 µM was determined as 7.79%. Moreover, in assay [2], the “Average (% positive control)” value is reported as 0.947 % positive control; the “Average IL-1β” value stood at 0.068 ng/mL; the “IL-1β” value is 0.067 ng/mL and 0.062 ng/mL and 0.074 ng/mL.
Consider `Cc1ccc(NC(=O)Nc2ccccc2)cc1F` [L01.124, 3-(3-fluoro-4-methyl-phenyl)-1-phenylurea], for which the “Average (% positive control)” value in assay [1] was 19.235 % positive control. Also, the cytotoxicity at 50 µM in assay [1] (setting [3]) is 14.1%. For the same compound, the cytotoxicity at 50 µM in assay [1] (setting [4]) stood at 14.1%. In assay [2], the “Average (% positive control)” value stood at 13.268 % positive control; the “Average IL-1β” value is 0.951 ng/mL; the “IL-1β” value was 0.928 ng/mL and 0.902 ng/mL and 1.024 ng/mL.
On to `O=C(NCc1nc(-c2cccnc2)no1)Nc1cccc2cnccc12` [L01.062, 1-(isoquinolin-5-yl)-3-{[3-(pyridin-3-yl)-1,2,4-oxadiazol-5-yl]-methyl}urea], for which the “Average (% positive control)” value in assay [1] was 18.117 % positive control. Besides, the cytotoxicity at 50 µM in assay [1] (setting [3]) stood at 13.3%. The cytotoxicity at 50 µM in assay [1] (setting [4]) came out at 13.4%. Besides, in assay [2], the “Average (% positive control)” value came to 1.141 % positive control; the “Average IL-1β” value amounted to 0.082 ng/mL; the “IL-1β” value was 0.084 ng/mL and 0.087 ng/mL and 0.074 ng/mL.
Consider `CS(=O)(=O)c1cc(NC(=O)Nc2ccccc2)ccc1Cl` [L01.035, 3-(4-chloro-3-methane-sulfonylphenyl)-1-phenylurea], for which the “Average (% positive control)” value in assay [1] is reported as 11.044 % positive control; in assay [2], 3.211 % positive control. Further, the results for the cytotoxicity at 50 µM in assay [1] (setting [3]) and in assay [1] (setting [4]) were 8.08% and 8.46%, respectively. In assay [2], the “Average IL-1β” value turned out to be 0.230 ng/mL. Further, the “IL-1β” value in assay [2] is 0.321 ng/mL and 0.189 ng/mL and 0.181 ng/mL.
As to `Cc1cccc(-c2noc(CN3C(=O)CN(c4ccccc4)C3=O)n2)c1` [L01.069, 3-{[3-(3-methylphenyl)-1,2,4-oxadiazol-5-yl]-methyl}-1-phenylimid-azolidine-2,4-dione], the results for the “Average (% positive control)” value in assay [1] and in assay [2] were 12.713 % positive control and 1.941 % positive control, respectively. The results for the cytotoxicity at 50 µM in assay [1] (setting [3]) and in assay [1] (setting [4]) were 9.3% and 9.2%, respectively. For the same compound, the “Average IL-1β” value in assay [2] is 0.139 ng/mL. Further, in assay [2], the “IL-1β” value was 0.131 ng/mL and 0.138 ng/mL and 0.149 ng/mL.
Consider `Cc1ccc(NC(=O)Nc2ccccc2)cc1NC(=O)NC(C)C` [L01.041, 3-(4-methyl-3-[(propan-2-yl)carbamoylamino}-phenyl)-1-phenylurea], for which the entries for the “Average (% positive control)” value in assay [1] and in assay [2] were 32.832 % positive control and 23.826 % positive control, respectively. Besides, the cytotoxicity at 50 µM in assay [1] (setting [3]) was 24%; in assay [1] (setting [4]) it was 24.4%. In addition, the “Average IL-1β” value in assay [2] was 1.708 ng/mL. For the same compound, the “IL-1β” value in assay [2] was 1.508 ng/mL and 1.847 ng/mL and 1.769 ng/mL.
As to `O=C1CN(c2ccccc2)C(=O)N1Cc1nc(-c2ccc(Cl)cc2)no1` [L01.049, 3-{[3-(4-chlorophenyl)-1,2,4-oxadiazol-5-yl]-methyl}-1-phenylimid-azolidine-2,4-dione], in assay [1], the “Average (% positive control)” value is on record as 16.093 % positive control. In addition, the cytotoxicity at 50 µM in assay [1] (setting [3]) is 11.8%. The cytotoxicity at 50 µM in assay [1] (setting [4]) was determined as 12.6%. Also, in assay [2], the “Average (% positive control)” value came to 4.189 % positive control; the “Average IL-1β” value was 0.300 ng/mL; the “IL-1β” value is 0.330 ng/mL and 0.251 ng/mL and 0.319 ng/mL.
`CC(=NO)c1ccc(NC(=O)Nc2ccccc2)cc1` [L01.095, 3-{4-[1-(hydroxyimino)-ethyl]phenyl}-1-phenyl-urea]: the entries for the “Average (% positive control)” value in assay [1] and in assay [2] were 7.959 % positive control and 1.703 % positive control, respectively. Further, the cytotoxicity at 50 µM in assay [1] (setting [3]) turned out to be 5.82%; in assay [1] (setting [4]), 5.21%. The “Average IL-1β” value in assay [2] stood at 0.122 ng/mL. For the same compound, the “IL-1β” value in assay [2] was 0.137 ng/mL and 0.128 ng/mL and 0.102 ng/mL.
Take `COc1ccc(NC(=O)NCc2nc(Cc3ccccc3)no2)cc1` [L01.125, 3-[(3-benzyl-1,2,4-oxadiazol-5-yl)methyl]-1-(4-methoxyphenyl)-urea]: the “Average (% positive control)” value is listed as 9.397 % positive control in assay [1] and 0.988 % positive control in assay [2]. Also, the cytotoxicity at 50 µM in assay [1] (setting [3]) turned out to be 6.87%; in assay [1] (setting [4]), 7.72%. In addition, the “Average IL-1β” value in assay [2] came to 0.071 ng/mL. Besides, in assay [2], the “IL-1β” value was 0.080 ng/mL and 0.071 ng/mL and 0.061 ng/mL.
In the case of `O=C(Nc1ccccc1)Nc1cccc(Br)c1` [L01.020, 3-(3-bromophenyl)-1-phenylurea], the “Average (% positive control)” value in assay [1] was determined as 14.712 % positive control. Further, the cytotoxicity at 50 µM in assay [1] (setting [3]) came to 10.8%. Besides, the cytotoxicity at 50 µM in assay [1] (setting [4]) worked out at 11.6%. Besides, in assay [2], the “Average (% positive control)” value was 3.256 % positive control; the “Average IL-1β” value is 0.233 ng/mL; the “IL-1β” value was 0.236 ng/mL and 0.231 ng/mL and 0.233 ng/mL.
`O=C(Nc1ccccc1)Nc1cccc(NC(=O)C2CCCC2)c1` [L01.103, N-{3-[(phenylcarbamo-yl)amino]phenyl}cyclo-pentanecarboxamide]: in assay [1], the “Average (% positive control)” value came out at 10.791 % positive control. Further, the cytotoxicity at 50 µM in assay [1] (setting [3]) was 7.89%. In assay [1] (setting [4]), the cytotoxicity at 50 µM was found to be 6.58%. Also, in assay [2], the “Average (% positive control)” value is reported as 1.624 % positive control; the “Average IL-1β” value was found to be 0.116 ng/mL; the “IL-1β” value is 0.060 ng/mL and 0.049 ng/mL and 0.240 ng/mL.
Take `O=C(Nc1ccccc1)Nc1ccc(OC(F)(F)F)cc1` [L01.061, 1-phenyl-3-[4-(trifluoro-methoxy)phenyl]urea]: in assay [1], the “Average (% positive control)” value turned out to be 19.349 % positive control. Moreover, the cytotoxicity at 50 µM in assay [1] (setting [3]) came out at 14.2%. Further, in assay [1] (setting [4]), the cytotoxicity at 50 µM was found to be 15.9%. Further, in assay [2], the “Average (% positive control)” value was found to be 6.360 % positive control; the “Average IL-1β” value turned out to be 0.456 ng/mL; the “IL-1β” value was 0.508 ng/mL and 0.439 ng/mL and 0.420 ng/mL.
